Experimental data: patent US20020132276A1, “FACS method for detecton of GPIIb/IIIa inhibitor dependent activators in plasma samples” (priority 1999, published 2002)
Entries after “also recorded” stand apart in the source; their conditions may differ.

Legend:
[1] = system: platelet CD62; experiment: DDPASFCA: flow cytometric detection of platelet CD62 in plasma samples with and without GPIIb/IIIa antagonist (Example 1 procedure); assay type: cell-based, human; set-up: key to Delta Med F12: median PE fluorescence with antagonist minus without antagonist
Procedure: 50 μL of citrated plasma from a patient eliciting a thrombocytopenic response during treatment with Compound A was added to Costar Serocluster® 96 well V-bottom microtiter plates (#3897). GPIIb/IIIa antagonist or vehicle was added (2 μL of 5μM compound A, final concentration 200 nM) was added, followed by sufficient PRP or PRP diluted into PPP to give a final platelet number of 1×10^6/well (typically 2 μL PRP). Reactions were incubated without shaking for 120 minutes. After this time, 15 μL of phycoerythrin conjugated anti-CD62 (anti-CD62-PE, Bectin Dickinson) was added. After 30 minutes the samples were diluted with 130 μL flow buffer (FB) consisting of 10 mM HEPES, 5 mM Kcl, 168 mM NaCl, 1 mM MgCl2. Samples were then transferred to 12×75 mm polystyrene and analyzed on a FACScan (Bectin Dickinson). PE fluorescence was read on FL2. Platelets were identified by their characteristic forward and side light scatter. Data from 10,000 events was obtained per sample and analyzed using Bectin Dickinson CellQuest software. The effects of GPIIb/IIIa antagonists on CD62 expression are expressed as the difference in median PE fluorescence for reactions in the presence of GPIIb/IIIa antagonist and CD62 median PE fluorescence in the absence of a GPIIb/IIIa antagonist.
The procedure was the same as in Example 1 (with modifications outlined in that example) except that where samples were limiting, only 35-40 μL of plasma was used.
Plasma from a patient who developed a thrombocytopenic episode while under therapy with Compound A was analyzed for the presence of DDPASs that might not be of immunoglobulin nature. Plasma from this previously thrombocytopenic patient (taken 17 months after the thrombocytopenia) as well as normal human plasma (negative control) and plasma from a subject known to contain DDPAS (positive control) were processed to remove immunoglobulins by passage through 1 mL protein A Hitrap® columns (Pharmacia, Inc.). The immunoglobulin-depleted plasma was free of IgG as assessed by an IgGl-specific ELISA and negative for the presence of GPIIb/IIIa antagonist-dependent anti-platelet antibodies as assessed by the DDAB ELISA assay. Plasma samples were then tested in the DDPASFCA as described in Example 1. There was no statistical difference between results for plasma samples containing immunoglobulin and those not containing immunoglobulin, Table 1.
The detection of a positive DDPAS titer in the presence of a donor plasma was assessed with dilutions of the DDPASFCA-positive plasma DPC38 into the DDPASFCA-negative plasma DPC50 using platelets from DPC50 as follows: Varying volume amounts of control plasma (DPC50), not containing DDPASs, were mixed with a the DDPAS-positive test plasma (total volume 50 μL). 1×10^6 platelets (PRP) was added. Samples were treated as in Example 1 with and without added Compound A. In the concentration range employed, DDPASs could be quantitatively measured in the test plasma. […] Thus, the signal intensity in the DDPASFCA was dose-dependent with respect to the plasma concentration for the DDPASFCA-positive subject DPC38. In contrast DDPASs were undetectable in the control plasma.
The development of DDPASs in the plasma of a patient who received Compound A and developed thrombocytopenia was analyzed using the procedure of Example 1. DDPASFCA was not determined for patient #304 prior to taking Compound A. The patient experienced thrombocytopenia after 3 days of administration of Compound A. DDPASs were subsequently detected in this patient's plasma on day 22 post-administration of Compound A and were also detected 17 months later (FIG. 2). DPC38 was used as a positive control. DPC3 was used as a negative control. […] In a prospective study, a patient with such pre-existing DDPASs could be excluded from the study, possibly preventing the clinically significant thrombocytopenic episode.

[2] = system: platelet CD62; experiment: DDPASFCA in alternative microtiter plates (Costar Serocluster #3897 versus #3898); assay type: cell-based, human; conditions: Compound A 200 nM
Procedure: ADP and DPC38 were used as sources of DDPASs. 2 μL of citrated PRP (DPC3) was added to either Costar Serocluster® 96 well V-bottom microtiterplates (#3897) or #3898 microtiter plates (Costar Serocluster®) (rated as “hydrophilic” in nature by the manufacturer). Platelets were then treated with and without Compound A (200 nM) with the indicated concentrations of ADP. Similarly, DDPAS positive PRP (DPC38) was added to wells of both types of plates and treated with and without Compound A (200 nM). Reactions were incubated without shaking for 120 minutes. After this time, 20 μL of phycoerythrin conjugated anti-CD62 (anti-CD62-PE, Bectin Dickinson) was added. After 30 minutes the samples were diluted with 150 μL flow buffer and bound anti-CD62-PE measured as described in Example 1.
Delta SC=Delta Fluorescence for Costar Serocluster microtiter plates
Delta H=Delta Fluorescence for H3898 microtiter plates

[3] = Neg. control plasma, IgG status +
[4] = Neg. control plasma, IgG status − (protein A-depleted)
[5] = Pos. control plasma, IgG status +
[6] = Pos. control plasma, IgG status − (protein A-depleted)
[7] = TCP plasma, IgG status − (protein A-depleted plasma)
[8] = platelet donor DPC38 (DDPAS positive PRP), ADP 0 uM
[9] = platelet donor DPC50 (DDPASFCA negative), ADP 0 uM

CCCCOC(=O)N[C@@H](CNC(=O)C[C@H]1CC(c2ccc(C(=N)N)cc2)=NO1)C(=O)O [Compound A, 2(S)-[(n-butoxycarbonyl)amino]-3-[[[3-[4-(aminoiminomethyl)phenyl]isoxazolin-5(R)-yl]methylcarbonyl]amino]propionic acid]
+ compound Med F12 ([1]; DPC38 0 ul, DPC50 50 ul): 12 | Delta Med F12 ([1]; DPC38 0 ul, DPC50 50 ul): −8 | + compound Med F12 ([1]; DPC38 8 ul, DPC50 42 ul): 64 | Delta Med F12 ([1]; DPC38 8 ul, DPC50 42 ul): 20 | + compound Med F12 ([1]; DPC38 10 ul, DPC50 40 ul): 73 | Delta Med F12 ([1]; DPC38 10 ul, DPC50 40 ul): 17 | + compound Med F12 ([1]; DPC38 12 ul, DPC50 38 ul): 88 | Delta Med F12 ([1]; DPC38 12 ul, DPC50 38 ul): 17 | + compound Med F12 ([1]; DPC38 17 ul, DPC50 33 ul): 135 | Delta Med F12 ([1]; DPC38 17 ul, DPC50 33 ul): 21 | + compound Med F12 ([1]; DPC38 25 ul, DPC50 25 ul): 271 | Delta Med F12 ([1]; DPC38 25 ul, DPC50 25 ul): 79 | Delta Med F12 ([1]; DPC38 50 ul, DPC50 0 ul): 304 | + compound Med F12 ([1]; DPC38 50 ul, DPC50 0 ul, DPC50 platelets): 670 | Delta (median PE fluorescence with minus without compound A) [1, 3]: −2 +/− 2 | FL2 compound A (median PE fluorescence) [1, 3]: 16 +/− 1 | Delta (median PE fluorescence with minus without compound A) [1, 4]: −44 +/− 15 | FL2 compound A (median PE fluorescence) [1, 4]: 30 +/− 9 | Delta (median PE fluorescence with minus without compound A) [1, 5]: 142 +/− 73 | FL2 compound A (median PE fluorescence) [1, 5]: 315 +/− 27 | Delta (median PE fluorescence with minus without compound A) [1, 6]: 122 +/− 52 | FL2 compound A (median PE fluorescence) [1, 6]: 297 +/− 33 | Delta (median PE fluorescence with minus without compound A) ([1]; TCP plasma, IgG status + (plasma)): 78 +/− 10 | FL2 compound A (median PE fluorescence) ([1]; TCP plasma, IgG status + (plasma), Compound A 200 nM): 154 +/− 8 | Delta (median PE fluorescence with minus without compound A) [1, 7]: 94 +/− 25 | FL2 compound A (median PE fluorescence) [1, 7]: 156 +/− 20 | DDPASs in patient plasma ([1]; patient #304, 17 months later): also detected | DDPASs in patient plasma ([1]; patient #304, day 22 post-administration of Compound A): detected; also recorded: DDPASFCA positive | DDPASs in plasmas of DDAB ELISA positive patients ([1]; pre-dose and study exit plasma, patients without clinically significant thrombocytopenia, except sample 099016): no substantial DDPASs | Delta CS (Delta Fluorescence for Costar Serocluster microtiter plates) ([2]; platelet donor DPC3, ADP 0 uM): 24 | Delta H (Delta Fluorescence for H3898 microtiter plates) ([2]; platelet donor DPC3, ADP 0 uM): 28 | Delta CS (Delta Fluorescence for Costar Serocluster microtiter plates) [2, 8]: 190 | Delta H (Delta Fluorescence for H3898 microtiter plates) [2, 8]: 338 | Delta CS (Delta Fluorescence for Costar Serocluster microtiter plates) [2, 9]: 0 | Delta H (Delta Fluorescence for H3898 microtiter plates) [2, 9]: −1
